The values that follow come from patent US11472808B2, “Substituted pyrrolo[1,2-c]pyrimidines as hepatitis B antiviral agents” (Enanta Pharmaceuticals, Inc., priority 2019, dated 2022).

The subject of this test is HBV. The experiment in a line: HepAD38 anti-HBV assay: reduction of viral product accumulation (virion DNA qPCR, HBsAg/HBeAg ELISA). The class given is cell-based. To be noted: Hepatitis B virus, 120 h; HepAD38 cells; concentration reducing viral product accumulation by 50% relative to no drug controls; harvest five days after compound addition; read-out: HepAD38 EC50. The gist of the method: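 EC50 values reflect 50% reduction, relative to untreated controls, in virion DNA (qPCR) or HBsAg/HBeAg (ELISA) from lysates or supernatants. Washed HepAD38 cells without tetracycline were exposed to compound for 5 days. In the 8-day variant, medium and compound were renewed on days 2 and 5.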
In general terms: Quantitative PCR measures a nucleic acid by following its amplification.

Regarding `CC[C@H](NS(=O)(=O)N[C@H]1CC2=C(c3ccn(C(F)F)n3)[C@H](c3ccc(F)cc3Cl)N=C(c3nccs3)N2C1)c1ccccn1` [Example 351], the EC50 was under 100 nM.

`CC1(NS(=O)(=O)N[C@H]2CC3=C(c4ccn(C(F)F)n4)[C@H](c4ccc(F)cc4Cl)N=C(c4nccs4)N3C2)CCC1` [Example 416]: the EC50 was under 100 nM.

On to `O[C@@]1(Cn2cccn2)CC2=C(c3ccn(C(F)F)n3)[C@H](c3ccc(F)cc3Cl)N=C(c3nccs3)N2C1` [Example 121], for which the EC50 was over 400 nM. The result for `COC(=O)c1cccc(S(=O)(=O)N[C@H]2CC3=C(c4ccn(C(F)F)n4)[C@H](c4ccc(F)cc4Cl)N=C(c4nccs4)N3C2)c1` [Example 2] reads under 100 nM; that for `Cc1cc(F)c(C(=O)O)cc1S(=O)(=O)N[C@H]1CC2=C(c3ccn(C(F)F)n3)[C@H](c3ccc(F)cc3Cl)N=C(c3nccs3)N2C1` [Example 29], over 400 nM; that for `COCCN(C)S(=O)(=O)N(C)[C@H]1CC2=C(c3ccn(C(F)F)n3)[C@H](c3ccc(F)cc3Cl)N=C(c3nccs3)N2C1` [Example 268], under 100 nM. The value for `O=C(N[C@H]1CC2=C(c3ccn(C(F)F)n3)[C@H](c3ccc(F)cc3Cl)N=C(c3nccs3)N2C1)C1CC(O)C1` (some centres unmarked) [Example 250] was 100 to 400 nM. `O=S(=O)(N[C@H]1CC2=C(c3ccn(C(F)F)n3)[C@H](c3ccc(F)cc3Cl)N=C(c3nccs3)N2C1)[C@H]1C[C@H]1c1ccccn1` [Example 391]: the EC50 lay in the range of 100 to 400 nM.

Take `O=S(=O)(N[C@H]1CC2=C(c3ccn(C(F)F)n3)[C@H](c3ccc(F)cc3Cl)N=C(c3nccs3)N2C1)c1ccc2ncccc2c1` [Example 397]: the EC50 was under 100 nM.

On to `CC(C)(CNS(=O)(=O)N[C@H]1CC2=C(c3ccn(C(F)F)n3)[C@H](c3ccc(F)cc3Cl)N=C(c3nccs3)N2C1)c1ccccn1` [Example 315], for which the EC50 is 100 to 400 nM. The value for `C[C@@H](NS(=O)(=O)N[C@H]1CC2=C(c3ccn(C(F)F)n3)[C@H](c3ccc(F)cc3Cl)N=C(c3nccs3)N2C1)c1ccccn1` [Example 159] was over 400 nM. The result for `CS(=O)(=O)NC[C@@]1(N)CC2=C(c3ccn(C(F)F)n3)[C@H](c3ccc(F)cc3Cl)N=C(c3nccs3)N2C1` [Example 148] reads over 400 nM; that for `O=C(O)c1ccc(CS(=O)(=O)N[C@H]2CC3=C(c4ccn(C(F)F)n4)[C@H](c4ccc(F)cc4Cl)N=C(c4nccs4)N3C2)cc1` [Example 36], under 100 nM; that for `O=C(N[C@H]1CC2=C(c3ccn(C(F)F)n3)[C@H](c3ccc(F)cc3Cl)N=C(c3nccs3)N2C1)C1(c2ccccn2)CC1` [Example 322], 100 to 400 nM.

As to `CONC[C@]1(O)CC2=C(c3ccn(C(F)F)n3)[C@H](c3ccc(F)cc3Cl)N=C(c3nccs3)N2C1` [Example 127], the EC50 is over 400 nM. The value for `O=S(=O)(C[C@]1(F)CC2=C(c3ccn(C(F)F)n3)[C@H](c3ccc(F)cc3Cl)N=C(c3nccs3)N2C1)c1ccccc1` [Example 195] was under 100 nM.

`CC(C)NC(=O)N[C@H]1CC2=C(c3ccn(C(F)F)n3)[C@H](c3ccc(F)cc3Cl)N=C(c3nccs3)N2C1` [Example 204]: the concentration giving a half-maximal response (EC50) is under 100 nM. The result for `O=S(=O)(N[C@H]1CC2=C(c3ccn(C(F)F)n3)[C@H](c3ccc(F)cc3Cl)N=C(c3nccs3)N2C1)N1C[C@@H](O)[C@H](O)C1` [Example 102] reads under 100 nM.

As to `CNCCS(=O)(=O)N[C@H]1CC2=C(c3ccn(C(F)F)n3)[C@H](c3ccc(F)cc3Cl)N=C(c3nccs3)N2C1` [Example 52], the EC50 is under 100 nM.

Take `CCOC(=O)/C=C/[C@@]1(F)CC2=C(c3ccn(C(F)F)n3)[C@H](c3ccc(F)cc3Cl)N=C(c3nccs3)N2C1` [Example 173]: the EC50 is under 100 nM. The value for `CC(C)CCS(=O)(=O)N[C@H]1CC2=C(c3ccn(C(F)F)n3)[C@H](c3ccc(F)cc3Cl)N=C(c3nccs3)N2C1` [Example 71] was 100 to 400 nM; that for `C[C@@H](NC(=O)CC1(S(=O)(=O)N[C@H]2CC3=C(c4ccn(C(F)F)n4)[C@H](c4ccc(F)cc4Cl)N=C(c4nccs4)N3C2)CC1)c1ccccn1` [Example 373] was under 100 nM; that for `O=C(O)c1cccc(S(=O)(=O)N[C@H]2CC3=C(c4ccn(C(F)F)n4)[C@H](c4ccc(F)cc4Cl)N=C(c4nccs4)N3C2)c1` [Example 5] was under 100 nM.

In the case of `O=C(N[C@H]1CC2=C(c3ccn(C(F)F)n3)[C@H](c3ccc(F)cc3Cl)N=C(c3nccs3)N2C1)N1CCC(O)(c2ncc[nH]2)CC1` [Example 247], the EC50 is over 400 nM. The result for `ONC[C@]1(O)CC2=C(c3ccn(C(F)F)n3)[C@H](c3ccc(F)cc3Cl)N=C(c3nccs3)N2C1` [Example 123] reads over 400 nM; that for `N#CC[C@]1(F)CC2=C(c3ccn(C(F)F)n3)[C@H](c3ccc(F)cc3Cl)N=C(c3nccs3)N2C1` [Example 193], over 400 nM; that for `O=C(N[C@H]1CC2=C(c3ccn(C(F)F)n3)[C@H](c3ccc(F)cc3Cl)N=C(c3nccs3)N2C1)N1CCC1` [Example 210], under 100 nM. Take `O=C1NCC2(CCN(S(=O)(=O)N[C@H]3CC4=C(c5ccn(C(F)F)n5)[C@H](c5ccc(F)cc5Cl)N=C(c5nccs5)N4C3)CC2)O1` [Example 163]: the 50% effective concentration (EC50) is under 100 nM. The result for `CC1CCC(C)N1S(=O)(=O)N[C@H]1CC2=C(c3ccn(C(F)F)n3)[C@H](c3ccc(F)cc3Cl)N=C(c3nccs3)N2C1` (some centres unmarked) [Example 291] reads under 100 nM. The value for `COC(=O)N1CCN(C(=O)N[C@H]2CC3=C(c4ccn(C(F)F)n4)[C@H](c4ccc(F)cc4Cl)N=C(c4nccs4)N3C2)CC1` [Example 221] was 100 to 400 nM; that for `O=S(=O)(N[C@H]1CC2=C(c3ccn(C(F)F)n3)[C@H](c3ccc(F)cc3Cl)N=C(c3nccs3)N2C1)N1CCCC1c1cccnc1` (some centres unmarked) [Example 283] was 100 to 400 nM; that for `O=S(=O)(N[C@H]1CC2=C(c3ccn(C(F)F)n3)[C@H](c3ccc(F)cc3Cl)N=C(c3nccs3)N2C1)c1cccc(C(F)(F)F)c1` [Example 399] was 100 to 400 nM. The value for `CC(C)[C@@H](NS(=O)(=O)N[C@H]1CC2=C(c3ccn(C(F)F)n3)[C@H](c3ccc(F)cc3Cl)N=C(c3nccs3)N2C1)c1ccccn1` [Example 341] was 100 to 400 nM. With `OCC(O)[C@]1(F)CC2=C(c3ccn(C(F)F)n3)[C@H](c3ccc(F)cc3Cl)N=C(c3nccs3)N2C1` (some centres unmarked) [Example 169], the EC50 lay within 100 to 400 nM. As for `O=C(N[C@H]1CC2=C(c3ccn(C(F)F)n3)[C@H](c3ccc(F)cc3Cl)N=C(c3nccs3)N2C1)[C@@H]1CC1c1ccccn1` (relative stereo) [Example 312], the EC50 was in the range of 100 to 400 nM.

As to `COC(=O)c1ccccc1S(=O)(=O)N[C@H]1CC2=C(c3ccn(C(F)F)n3)[C@H](c3ccc(F)cc3Cl)N=C(c3nccs3)N2C1` [Example 4], the EC50 fell in the range of 100 to 400 nM. With `O=C(N[C@H]1CC2=C(c3ccn(C(F)F)n3)[C@H](c3ccc(F)cc3Cl)N=C(c3nccs3)N2C1)N1CCC(O)(c2ncco2)CC1` [Example 245], the EC50 was 100 to 400 nM. The result for `O=S(=O)(CCc1ccccn1)N[C@H]1CC2=C(c3ccn(C(F)F)n3)[C@H](c3ccc(F)cc3Cl)N=C(c3nccs3)N2C1` [Example 380] reads 100 to 400 nM; that for `CC(C)[C@]1(O)CC[C@H](c2ccc(S(=O)(=O)N[C@H]3CC4=C(c5ccn(C(F)F)n5)[C@H](c5ccc(F)cc5Cl)N=C(c5nccs5)N4C3)cc2)CC1` [Example 414], under 100 nM. The result for `O=S(=O)(CCN1CCC(O)CC1)N[C@H]1CC2=C(c3ccn(C(F)F)n3)[C@H](c3ccc(F)cc3Cl)N=C(c3nccs3)N2C1` [Example 57] reads under 100 nM; that for `O=C(N[C@H]1CC2=C(c3ccn(C(F)F)n3)[C@H](c3ccc(F)cc3Cl)N=C(c3nccs3)N2C1)c1ccncc1` [Example 231], under 100 nM; that for `COC(=O)c1ccc(NC(=O)N2CCN([C@H]3CC4=C(c5ccn(C(F)F)n5)[C@H](c5ccc(F)cc5Cl)N=C(c5nccs5)N4C3)CC2)cc1` [Example 46], over 400 nM. As for `CC(=O)OCCCCS(=O)(=O)N[C@H]1CC2=C(c3ccn(C(F)F)n3)[C@H](c3ccc(F)cc3Cl)N=C(c3nccs3)N2C1` [Example 279], the EC50 is under 100 nM. On to `CCNS(=O)(=O)N[C@H]1CC2=C(c3ccn(C(F)F)n3)[C@H](c3ccc(F)cc3Cl)N=C(c3nccs3)N2C1` [Example 76], for which the EC50 is under 100 nM. The result for `COC(=O)[C@H]1C[C@H](S(=O)(=O)N[C@H]2CC3=C(c4ccn(C(F)F)n4)[C@H](c4ccc(F)cc4Cl)N=C(c4nccs4)N3C2)C1` [Example 14] reads 100 to 400 nM; that for `O=S(=O)(N[C@H]1CC2=C(c3ccn(C(F)F)n3)[C@H](c3ccc(F)cc3Cl)N=C(c3nccs3)N2C1)c1cccc(-n2cccn2)n1` [Example 423], 100 to 400 nM; that for `O[C@@]1(CN2CCOCC2)CC2=C(c3ccn(C(F)F)n3)[C@H](c3ccc(F)cc3Cl)N=C(c3nccs3)N2C1` [Example 139], 100 to 400 nM. The value for `OC/C=C/[C@@]1(F)CC2=C(c3ccn(C(F)F)c3)[C@H](c3ccc(F)cc3Cl)N=C(c3nccs3)N2C1` [Example 175] was 100 to 400 nM; that for `O=S(=O)(NCC(O)c1ccccn1)N[C@H]1CC2=C(c3ccn(C(F)F)n3)[C@H](c3ccc(F)cc3Cl)N=C(c3nccs3)N2C1` (some centres unmarked) [Example 308] was under 100 nM. The result for `O=C(N[C@H]1CC2=C(c3ccn(C(F)F)n3)[C@H](c3ccc(F)cc3Cl)N=C(c3nccs3)N2C1)N1CCC(O)(c2ncc(C3CC3)s2)CC1` [Example 246] reads 100 to 400 nM. In the case of `O[C@]1(Cn2cccn2)CC2=C(c3ccn(C(F)F)n3)[C@H](c3ccc(F)cc3Cl)N=C(c3nccs3)N2C1` [Example 120], the EC50 was over 400 nM. The value for `O=S(=O)(NCc1ccccn1)N[C@H]1CC2=C(c3ccn(C(F)F)n3)[C@H](c3ccc(F)cc3Cl)N=C(c3nccs3)N2C1` [Example 306] was 100 to 400 nM; that for `CS(=O)(=O)CC(NS(=O)(=O)N[C@H]1CC2=C(c3ccn(C(F)F)n3)[C@H](c3ccc(F)cc3Cl)N=C(c3nccs3)N2C1)c1ccccn1` (some centres unmarked) [Example 345] was under 100 nM.

A word on the EC50: it is the concentration needed to bring the measured effect to its halfway point.
